Assay results from US4171367A, “Pyrazolyl amino imidazolines” (Abbott Laboratories, priority 1977, dated 1979).
Where a name gives a salt, the structure may show the parent alone. Read-outs that look alike come from different tables or passages of the source.

Test system: reverse passive Arthus reaction
Assay: reverse passive Arthus reaction test in rats (anti-inflammatory effect, oral)
Type: in vivo, rat (male Sprague-Dawley)
Settings: 4 h, read-out: Percent Inhibition of Arthus Reaction; for inhibition in vivo at 25 mg/kg: oral dose 25 mg/kg
Source text: The anti-inflammatory activity of the compounds of this invention was established using the reverse passive Arthus reaction in the rat as described by G. W. Carter and R. A. Krause in Federation Proceedings, Vol. 35, p. 774, 1976. The carrageenin rat paw edema test (Winter et al, Proc. Soc. Exp. Biol. Med., 111, 554, 1962) can be used to establish anti-inflammatory activity, however, unlike carrageenin induced edema, the Arthus reaction is a well characterized immune reaction which bears close resemblance to the pathogenisis of rheumatoid arthritis.
The Arthus reaction represents one of the oldest and best studied models of immunological injury. It is produced by the injection of antigen locally into a hyperimmunized animal or by the injection of a small amount of antibody into the skin of an animal that has just previously been given a large amount of soluble antigen intravenously. In both cases the antigen and antibody become deposited in the walls of small venules. Plasma complement is rapidly bound and activated. Within a few hours neutrophils (PMNs) accumulate, resulting in disruption of the basement membrane of vessel walls and marked edema and hemorrage in the surrounding tissue.
The reverse passive Arthus reaction test in rats is conducted as follows. Male Sprague-Dawley rats weighing approximately 130-160 g. are used, 4 rats per group. All animals are injected intravenously with 0.5 ml. 0.075% Bovine Serum Albumin (B.S.A.)+0.2% Evans Blue solution. Each rat then receives an oral dose of drug; one drug is administered per group.
Thirty minutes subsequent to drug dosing, each animal is injected intradermally with 0.05 ml. 1.44% Anti-B.S.A. into the dorsal skin. Four hours later the animals are sacrificed, the dorsal skin reflexed, and the lesion excised. Two perpendicular diameters of each lesion are measured. The average diameters of the lesions from the treated groups are compared with the average diameters from the control group to determine any drug effect.
The anti-inflammatory activity of representative compounds of this invention, as determined by the reverse passive Arthus reaction test in rats, is summarized in Table I.

Compound | inhibition in vivo at 100 mg/kg (oral dose 100 mg/kg, rat) | also measured
Brc1c(-c2ccccc2)nn(-c2ccccc2)c1NC1=NCCN1 [R1=C6H5, R2=C6H5, R3=Br, R4=H, 2(4-Bromo-1,3-diphenyl-5-pyrazolyl) amino-2-imidazoline hydrobromide] | 17% | –
c1ccc(-c2cc(NC3=NCCN3)n(-c3ccccc3)n2)cc1 [R1=C6H5, R2=C6H5, R3=H, R4=H, 2(1,3-Diphenyl-5-pyrazolyl) amino-2-imidazoline] | 32% | –
Brc1cnn(-c2ccccc2)c1NC1=NCCN1 [R1=C6H5, R2=H, R3=Br, R4=H, 2-(4-Bromo-1-phenyl-5-pyrazolyl)-amino-2-imidazoline hydrochloride] | 59% | inhibition in vivo at 25 mg/kg (rat): 41%
CC(=O)N1CCN=C1Nc1ccnn1-c1ccccc1 [R1=C6H5, R2=H, R3=H, R4=COCH3, 1-Acetyl-2-(1-phenyl-5-pyrazolyl)-amino-2-imidazoline] | 70% | –
c1ccc(-n2nccc2NC2=NCCN2)cc1 [R1=C6H5, R2=H, R3=H, R4=H, 2-(1-Phenyl-5-pyrazolyl)-amino-2-imidazoline] | 75% | inhibition in vivo at 25 mg/kg (rat): 62%
CC(C)c1nn(C(C)C)c(NC2=NCCN2)c1Br [R1=Me2CH, R2=Me2CH, R3=Br, R4=H, 2-(4-Bromo-1,3-di-isopropyl-5-pyrazolyl)amino-2-imidazoline hydrobromide] | – | inhibition in vivo at 100 mg/kg (Rattus norvegicus, po): 27%
CC(C)c1cc(NC2=NCCN2)n(C(C)C)n1 [R1=Me2CH, R2=Me2CH, R3=H, R4=H, 2-(1,3-Di-isopropyl-5-pyrazolyl)-amino-2-imidazoline] | 11% | –
CC(=O)N1CCN=C1Nc1cc(C)nn1C(C)C [R1=Me2CH, R2=Me, R3=H, R4=COCH3, 1-Acetyl-2(1-isopropyl-3-methyl-5-pyrazolyl)amino-2-imidazoline] | 39% | inhibition in vivo at 50 mg/kg (oral dose 50 mg/kg, rat): 30%
Cc1cc(NC2=NCCN2)n(C(C)C)n1 [R1=Me2CH, R2=Me, R3=H, R4=H, 2-(1-Isopropyl-3-methyl-5-pyrazolyl)amino-2-imidazoline] | 29% | inhibition in vivo at 50 mg/kg (oral dose 50 mg/kg, rat): 20%
Cc1nn(CCC(C)C)c(NC2=NCCN2)c1Br [R1=Me2CHCH2CH2, R2=Me, R3=Br, R4=H, 2[4-Bromo-1-(3-methylbutyl)-3-methyl-5-pyrazolyl]amino-2-imidazoline hydrochloride] | – | inhibition in vivo at 100 mg/kg (Rattus norvegicus, po): 16%
Cc1cc(NC2=NCCN2)n(CCC(C)C)n1 [R1=Me2CHCH2CH2, R2=Me, R3=H, R4=H, 2[1-(3-Methylbutyl)-3-methyl-5-pyrazolyl]amino-2-imidazoline] | – | inhibition in vivo at 100 mg/kg (Rattus norvegicus, po): 15%
CC(C)c1nn(C)c(NC2=NCCN2)c1Br [R1=Me, R2=Me2CH, R3=Br, R4=H, 2(4-Bromo-3-isopropyl-1-methyl-5-pyrazolyl)amino-2-imidazoline hydrobromide] | – | inhibition in vivo at 50 mg/kg (Rattus norvegicus, po): 37%; inhibition in vivo at 100 mg/kg (Rattus norvegicus, po): 42%
CC(=O)N1CCN=C1Nc1cc(C(C)C)nn1C [R1=Me, R2=Me2CH, R3=H, R4=COCH3, 1-Acetyl-2(3-isopropyl-1-methyl-5-pyrazolyl)amino-2-imidazoline] | 18% | –
CC(C)c1cc(NC2=NCCN2)n(C)n1 [R1=Me, R2=Me2CH, R3=H, R4=H, 2(3-Isopropyl-1-methyl-5-pyrazolyl)-amino-2-imidazoline] | 42% | inhibition in vivo at 50 mg/kg (oral dose 50 mg/kg, rat): 33%
Cc1nn(C)c(Cl)c1NC1=NCCN1 [R1=Me, R2=Me, R3=(5) (C1), R4=H, 2-(4-chloro-1,3-dimethyl-4-pyrazolyl)-amino-2-imidazoline hydrochloride] | 69% | inhibition in vivo at 10 mg/kg (oral dose 10 mg/kg, rat): 49%; inhibition in vivo at 25 mg/kg (rat): 64%
CC(=O)N1CCN=C1Nc1c(C)nn(C)c1Cl [R1=Me, R2=Me, R3=(5) C1, R4=COCH3, 1-acetyl-2-(5-chloro-1,3-dimethyl-4-pyrazolyl) amino-2-imidazoline hydrochloride] | 63% | inhibition in vivo at 25 mg/kg (rat): 39%
Cc1nn(C)c(NC2=NCCN2)c1Br [R1=Me, R2=Me, R3=Br, R4=H, 2(4-Bromo-1,3-dimethyl-5-pyrazolyl)-amino-2-imidazoline] | – | inhibition in vivo at 50 mg/kg (oral dose 50 mg/kg, rat): 45%
Cc1cc(NC2=NCCN2)n(C)n1 [R1=Me, R2=Me, R3=H, R4=H, 2(1,3-Dimethyl-5-pyrazolyl) amino-b 2-imidazoline] | 55% | –
Cc1nn(C)c(NC2=NCCN2)c1I [R1=Me, R2=Me, R3=I, R4=H, 2(1,3-Dimethyl-4-iodo-5-pyrazolyl)-amino-2-imidazoline] | 43% | –
Brc1cnn(C2CCCCC2)c1NC1=NCCN1 [R1=drawing 4, R2=H, R3=Br, R4=H, 2-(4-Bromo-1-cyclohexyl-5-pyrazolyl)-amino-2-imidazoline hydrochloride] | 15% | –
c1cc(NC2=NCCN2)n(C2CCCCC2)n1 [R1=drawing 5, R2=H, R3=H, R4=H, 2-(1-Cyclohexyl-5-pyrazolyl)-amino-2-imidazoline] | 15% | –
